Source: PubChem BioAssay (NCI)
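Results reflect a 48-hour exposure of cells in 96-well plates to compound at five concentrations. GI50: concentration for 50% inhibition of growth. TGI is the concentration that stops growth completely.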

How the values were obtained:
Assay in all cases: NCI anticancer screen, dose series, 48 h
[1] = test system: 786-0 renal
[2] = test system: A498 renal
[3] = test system: A549 NSCLC
[4] = test system: ACHN renal
[5] = test system: CAKI-1 renal
[6] = test system: CCRF-CEM leukemia
[7] = test system: COLO 205 colon
[8] = test system: DU-145 prostate
[9] = test system: EKVX NSCLC
[10] = test system: HCC-2998 colon
[11] = test system: HCT-116 colon
[12] = test system: HCT-15 colon
[13] = test system: HL-60(TB) leukemia
[14] = test system: HOP-62 NSCLC
[15] = test system: HS 578T breast
[16] = test system: HT29 colon
[17] = test system: IGROV1 ovarian
[18] = test system: K-562 leukemia
[19] = test system: KM12 colon
[20] = test system: LOX IMVI melanoma
[21] = test system: M14 melanoma
[22] = test system: MALME-3M melanoma
[23] = test system: MCF7 breast
[24] = test system: MDA-MB-231 breast
[25] = test system: MDA-MB-435
[26] = test system: MDA-N
[27] = test system: MOLT-4 leukemia
[28] = test system: NCI-H226 lung
[29] = test system: NCI-H23 lung
[30] = test system: NCI-H460 lung
[31] = test system: NCI/ADR-RES ovarian
[32] = test system: OVCAR-3 ovarian
[33] = test system: OVCAR-4 ovarian
[34] = test system: OVCAR-5 ovarian
[35] = test system: OVCAR-8 ovarian
[36] = test system: PC-3 prostate
[37] = test system: RPMI-8226 leukemia
[38] = test system: RXF 393 renal
[39] = test system: SF-268 CNS
[40] = test system: SF-295 CNS
[41] = test system: SF-539 CNS
[42] = test system: SK-MEL-2 melanoma
[43] = test system: SK-MEL-28 melanoma
[44] = test system: SK-MEL-5 melanoma
[45] = test system: SN12C renal
[46] = test system: SNB-19 CNS
[47] = test system: SNB-75 CNS
[48] = test system: SR leukemia
[49] = test system: SW-620 colon
[50] = test system: T-47D breast
[51] = test system: TK-10 renal
[52] = test system: UACC-62 melanoma
[53] = test system: UO-31 renal
[54] = test system: BT-549 breast
[55] = test system: HOP-92 NSCLC
[56] = test system: NCI-H522 lung
[57] = test system: SK-OV-3 ovarian
[58] = test system: U251 CNS
[59] = test system: UACC-257 melanoma

Structure (SMILES): C/C(CC1SCCCS1)=C(/C)CC1SCCCS1
- TGI [1]: > 100 µM
- TGI [2]: > 100 µM
- TGI [3]: > 100 µM
- TGI [4]: > 100 µM
- TGI [5]: > 100 µM
- TGI [6]: > 100 µM
- TGI [7]: > 100 µM
- TGI [8]: > 100 µM
- TGI [9]: > 100 µM
- TGI [10]: > 100 µM
- TGI [11]: > 100 µM
- TGI [12]: > 100 µM
- TGI [13]: > 100 µM
- TGI [14]: > 100 µM
- TGI [15]: > 100 µM
- TGI [16]: > 100 µM
- TGI [17]: > 100 µM
- TGI [18]: > 100 µM
- TGI [19]: > 100 µM
- TGI [20]: > 100 µM
- TGI [21]: > 100 µM
- TGI [22]: > 100 µM
- TGI [23]: > 100 µM
- TGI [24]: > 100 µM
- TGI [25]: > 100 µM
- TGI [26]: > 100 µM
- TGI [27]: > 100 µM
- TGI [28]: > 100 µM
- TGI [29]: > 100 µM
- TGI [30]: > 100 µM
- TGI [31]: > 100 µM
- TGI [32]: > 100 µM
- TGI [33]: > 100 µM
- TGI [34]: > 100 µM
- TGI [35]: > 100 µM
- TGI [36]: > 100 µM
- TGI [37]: > 100 µM
- TGI [38]: > 100 µM
- TGI [39]: > 100 µM
- TGI [40]: > 100 µM
- TGI [41]: > 100 µM
- TGI [42]: > 100 µM
- TGI [43]: > 100 µM
- TGI [44]: > 100 µM
- TGI [45]: > 100 µM
- TGI [46]: > 100 µM
- TGI [47]: > 100 µM
- TGI [48]: > 100 µM
- TGI [49]: > 100 µM
- TGI [50]: > 100 µM
- TGI [51]: > 100 µM
- TGI [52]: > 100 µM
- TGI [53]: > 100 µM

Structure (SMILES): Cn1ccnc1C(=O)/C=C/c1ccc(CC(=O)Nc2ccc(C(F)(F)F)cc2)cc1
- GI50 [1]: 1.81 µM
- TGI [1]: 4.07 µM
- GI50 [2]: 4.17 µM
- TGI [2]: 11.8 µM
- GI50 [3]: 3.82 µM
- TGI [3]: 10.3 µM
- GI50 [4]: 2.95 µM
- TGI [4]: 5.96 µM
- GI50 [54]: 2.56 µM
- TGI [54]: 5.33 µM
- GI50 [5]: 3.54 µM
- TGI [5]: 9.53 µM
- GI50 [6]: 0.658 µM
- TGI [6]: > 16.7 µM
- GI50 [7]: 3.17 µM
- TGI [7]: 6.17 µM
- GI50 [8]: 2.97 µM
- TGI [8]: 6.42 µM
- GI50 [9]: 3.07 µM
- TGI [9]: 8.49 µM
- GI50 [10]: 2.87 µM
- TGI [10]: 5.44 µM
- GI50 [11]: 2.4 µM
- TGI [11]: 4.94 µM
- GI50 [12]: 1.4 µM
- TGI [12]: > 16.7 µM
- GI50 [13]: 1.8 µM
- TGI [13]: 9.82 µM
- GI50 [14]: > 16.7 µM
- TGI [14]: > 16.7 µM
- GI50 [55]: 2.4 µM
- TGI [55]: 5.66 µM
- GI50 [15]: 6.14 µM
- TGI [15]: > 16.7 µM
- GI50 [16]: 3.96 µM
- TGI [16]: 9.02 µM
- GI50 [17]: 4.37 µM
- TGI [17]: 12.9 µM
- GI50 [18]: 0.614 µM
- TGI [18]: > 16.7 µM
- GI50 [19]: 3.23 µM
- TGI [19]: 8.69 µM
- GI50 [20]: 2.18 µM
- TGI [20]: 4.37 µM
- GI50 [21]: 3.72 µM
- TGI [21]: 8.3 µM
- GI50 [22]: 3.95 µM
- TGI [22]: 10.7 µM
- GI50 [23]: 1.02 µM
- TGI [23]: 14.5 µM
- GI50 [24]: 4.02 µM
- TGI [24]: 15.2 µM
- GI50 [25]: 3.88 µM
- TGI [25]: 12.5 µM
- GI50 [27]: 1.17 µM
- TGI [27]: 8.06 µM
- GI50 [28]: 4.19 µM
- TGI [28]: 16 µM
- GI50 [29]: 3.28 µM
- TGI [29]: 6.9 µM
- GI50 [30]: 2.99 µM
- TGI [30]: 9.42 µM
- GI50 [56]: 3.35 µM
- TGI [56]: 6.39 µM
- GI50 [31]: 4.32 µM
- TGI [31]: 10.9 µM
- GI50 [32]: 2.95 µM
- TGI [32]: 6.88 µM
- GI50 [33]: 3.1 µM
- TGI [33]: > 16.7 µM
- GI50 [34]: 2.45 µM
- TGI [34]: 5.21 µM
- GI50 [35]: 4.9 µM
- TGI [35]: > 16.7 µM
- GI50 [36]: 1.01 µM
- TGI [36]: 4.6 µM
- GI50 [37]: 0.869 µM
- TGI [37]: 5.17 µM
- GI50 [38]: 2.72 µM
- TGI [38]: 5.49 µM
- GI50 [39]: 3.03 µM
- TGI [39]: 7.88 µM
- GI50 [40]: 2.56 µM
- TGI [40]: 5.17 µM
- GI50 [41]: 2.21 µM
- TGI [41]: 4.45 µM
- GI50 [42]: 4.95 µM
- TGI [42]: 11.3 µM
- GI50 [43]: 2.92 µM
- TGI [43]: 6.25 µM
- GI50 [44]: 3.83 µM
- TGI [44]: 11.2 µM
- GI50 [57]: 6.6 µM
- TGI [57]: > 16.7 µM
- GI50 [45]: 4.32 µM
- TGI [45]: > 16.7 µM
- GI50 [46]: 2.46 µM
- TGI [46]: 5.09 µM
- GI50 [47]: 2.5 µM
- TGI [47]: 8.01 µM
- GI50 [48]: 0.718 µM
- TGI [48]: 9.94 µM
- GI50 [49]: 4.17 µM
- TGI [49]: > 16.7 µM
- GI50 [50]: 5.95 µM
- TGI [50]: > 16.7 µM
- GI50 [51]: 5 µM
- TGI [51]: 15.3 µM
- GI50 [58]: 1.89 µM
- TGI [58]: 3.93 µM
- GI50 [59]: 8.03 µM
- TGI [59]: > 16.7 µM
- GI50 [52]: 3.16 µM
- TGI [52]: 7.65 µM
- GI50 [53]: 2.51 µM
- TGI [53]: 4.76 µM
